Test results as given in US20220033407A1, “N-(pyridin-2-ylsulfonyl)cyclopropanecarboxamide Derivatives and their Use in the Treatment of Disease” (NOVARTIS AG, priority 2018, published 2022).

Legend:
delF508-CFTR-HRP = biological target: T1, delF508-CFTR-HRP (Homo sapiens, UniProt P13569, DEL508-508); experiment: Measurement of delF508-CFTR-HRP surface expression in CFBE41o- cells (HRP luminescence); assay type: cell-based; conditions: for Emax: CFBE41o-, read-out: DelF508-CFTR-HRP Amax %; for EC50: mean of at least two replicates;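 for DelF508-CFTR-HRP Amax %: percent efficacy relative to a reference CFTR corrector compound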
T1 construct: expressed in transfected cells
T1 sequence (P13569 with tags, fused parts or gaps DEL508-508): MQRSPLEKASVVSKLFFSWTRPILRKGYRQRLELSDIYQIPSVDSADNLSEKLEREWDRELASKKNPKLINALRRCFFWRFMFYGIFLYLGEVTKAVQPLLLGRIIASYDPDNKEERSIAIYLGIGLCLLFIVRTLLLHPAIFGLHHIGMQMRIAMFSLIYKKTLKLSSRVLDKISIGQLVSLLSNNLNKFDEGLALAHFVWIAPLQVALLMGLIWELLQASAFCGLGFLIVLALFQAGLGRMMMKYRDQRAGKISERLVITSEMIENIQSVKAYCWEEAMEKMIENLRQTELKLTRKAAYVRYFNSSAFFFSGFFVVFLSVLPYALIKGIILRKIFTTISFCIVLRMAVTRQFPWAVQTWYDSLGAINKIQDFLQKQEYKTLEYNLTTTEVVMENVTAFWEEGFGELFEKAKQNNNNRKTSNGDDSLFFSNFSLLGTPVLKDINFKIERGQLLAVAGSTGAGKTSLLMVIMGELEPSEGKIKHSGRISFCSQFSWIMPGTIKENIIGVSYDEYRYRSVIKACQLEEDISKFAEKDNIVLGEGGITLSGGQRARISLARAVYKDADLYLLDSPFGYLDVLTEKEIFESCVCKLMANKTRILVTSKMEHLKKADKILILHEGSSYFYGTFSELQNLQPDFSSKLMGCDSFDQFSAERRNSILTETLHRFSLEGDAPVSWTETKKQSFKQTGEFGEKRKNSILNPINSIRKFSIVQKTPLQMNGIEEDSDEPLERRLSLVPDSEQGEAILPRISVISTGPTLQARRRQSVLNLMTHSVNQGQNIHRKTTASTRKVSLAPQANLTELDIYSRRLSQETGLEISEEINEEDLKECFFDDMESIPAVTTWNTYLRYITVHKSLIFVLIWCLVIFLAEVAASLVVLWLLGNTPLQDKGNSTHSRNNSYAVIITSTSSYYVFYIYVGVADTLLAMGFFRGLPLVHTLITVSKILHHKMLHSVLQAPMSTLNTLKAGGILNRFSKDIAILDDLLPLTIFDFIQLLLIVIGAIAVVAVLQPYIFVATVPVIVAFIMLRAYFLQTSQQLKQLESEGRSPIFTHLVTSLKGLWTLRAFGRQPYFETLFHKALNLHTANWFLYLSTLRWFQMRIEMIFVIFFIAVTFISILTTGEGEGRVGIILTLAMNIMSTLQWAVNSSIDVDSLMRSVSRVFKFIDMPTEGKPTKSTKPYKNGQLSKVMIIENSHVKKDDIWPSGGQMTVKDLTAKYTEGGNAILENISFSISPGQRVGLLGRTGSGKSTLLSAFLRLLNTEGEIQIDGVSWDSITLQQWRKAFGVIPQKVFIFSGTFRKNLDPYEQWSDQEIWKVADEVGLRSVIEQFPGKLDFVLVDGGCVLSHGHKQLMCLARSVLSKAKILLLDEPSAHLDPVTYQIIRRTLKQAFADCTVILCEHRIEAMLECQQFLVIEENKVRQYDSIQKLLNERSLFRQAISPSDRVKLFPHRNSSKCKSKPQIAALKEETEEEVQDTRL
Summary of the method: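 EC50 derived by logistic regression of triplicate surface-HRP luminescence, plate-normalized to the lowest-concentration median. Doxycycline (500 ng/mL, 48 h) induced delF508-CFTR-HRP in CFBE41o- cells; compounds then applied 24 h at 37° C, 10 μM top, 3-fold over 10 points.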

delF508-CFTR = biological target: T2, delF508-CFTR (Homo sapiens, UniProt P13569, DEL508-508); experiment: delF508-CFTR functional activity in primary human bronchial epithelial cells (HBECs), Multi-Transepithelial Clamp Circuit (MTECC-24) assay, equivalent short circuit current; assay type: cell-based; conditions: primary CF HBECs; for MTECC24 CFHBEC-Amax %: relative to reference combination 2 μM 3-(6-(1-(2,2-difluorobenzo[d][1,3]dioxol-5-yl)cyclopropane-1-carboxamido)-3-methylpyridin-2-yl)benzoic acid (24 h) + 0.5 μM N-(2,4-di-tert-butyl-5-hydroxyphenyl)-4-oxo-1,4-dihydroquinoline-3-carboxamide; for EC50: test compound added 24 h before assay, potentiator (S)-3-amino-6-methoxy-N-(3,3,3-trifluoro-2-hydroxy-2-methylpropyl)-5-(trifluoromethyl)picolinamide present at assay, mean of at least two replicates, read-out: MTECC24 CFHBEC-EC50
T2 construct: functional activity of the CFTR channel (Chloride ion transport) in patient derived primary human bronchial epithelial cells; host or cells: patient-derived primary human bronchial epithelial cells (HBECs), delF508-CFTR
T2 sequence (P13569 with tags, fused parts or gaps DEL508-508): as above
Source text: Measurement of delF508-CFTR Functional Activity in Primary Human Bronchial Epithelial Cells (HBECs) Using Multi-Transepithelial Clamp Circuit (MTECC-24) Assay
This assay measures the functional activity of the CFTR channel (Chloride ion transport) in patient derived primary human bronchial epithelial cells with forskolin activation and in the presence of the CFTR corrector wherein the corrector is a compound of the invention and the potentiator is (S)-3-amino-6-methoxy-N-(3,3,3-trifluoro-2-hydroxy-2-methylpropyl)-5-(trifluoromethyl)picolinamide.
Primary human delF508-CFTR bronchial epithelial cells were purchased from Asterand and cultured according to previously established methods (Fulcher et al. (2005) Methods Mol Med 107: 183-206). Briefly, vendor supplied cells were rapidly defrosted and added to a T175 flask in 50 mL growth media (Lonza BEBM media with Lonza BEGM singlequots). Media was replaced after 24 h and then cells were fed every other day until cells were 80-90% confluent, at which point cells were cryopreserved. These P1 vials were thawed at 37° C. as needed and added to T175 flasks in 50 mL growth media at 5×10^5 cells/flask. Media was replaced after 24 h, and then cells were fed every other day until 80-90% confluent. Cells were lifted with 5 mL Accutase at 37° C. for 5 minutes, centrifuged at 1000 rpms for 5 min (300 g), and resuspended in differentiation media (50% BEBM in DMEM, BEGM singlequots, all trans retinoic acid (5×10·8M)). Cells were then counted and cell suspension was added to collagen coated inserts at 3×10^4 cells/insert in 0.15 mL with 0.5 mL differentiation media on the basolateral side.
Apical and basolateral media were replaced on alternate days, and following day 7 (or when confluent plus 2 days), air liquid interface was established for approximately two weeks by removal of apical media. One day prior to use on the MTECC24 system (EP-Devices, EP Design, Belgium), 0.15 mL of warmed (37° C.) PBS was added to the apical surface of the cultures and returned to humidifier (37° C., 5% CO2 incubator) for 30 min before aspirating the apical surface to remove any mucus.
Compound treatments were then prepared. Compound dilutions, typically a 10 point concentration response with 1 in 3 dilution steps, were made in 100% DMSO before dilution 1 in 1000 into differentiation medium with a final DMSO concentration of 0.1% or 0.2% for the study. Compound containing medium was then transferred into the wells of a 24 well plate at 0.5 mL per well and warmed for 30 min in a 37° C. incubator prior to transferring washed inserts into the compound containing plates. Cells were incubated in compound containing medium (basolateral only) for 24 h prior to measurement in the MTECC24 system.
Following 24 hr treatment, compound dilutions were prepared again, diluted 1 in 1000 into 37° C. assay medium (F-12 Coon's modified, 20 mM HEPES pH7.4 with TRIS Base, No FCS or bicarbonate). Cells which were treated for 24 h with test compound were then transferred into plates containing 0.75 mL compound treatment in assay medium (basolateral) and 0.25 mL of the compound containing assay medium was added to the apical surface. The plates were then transferred to the heated plate compartments of the MTECC24 system for 45 min prior to measurements (this can also be done in a non-CO2 37° C. humidified incubator). Basolateral temperature should not exceed 36.5° C. and apical temperature should be approximately 35.5° C.
Modulators were added sequentially as follows while the MTECC24 instrument recorded the equivalent short circuit current (Ieq)
Prior to dilution into F-12 medium the stocks are as follows: Amiloride stock is 10 mM in H2O
Forskolin Stock is 10 mM in 100% DMSO
(S)-3-amino-6-methoxy-N-(3,3,3-trifluoro-2-hydroxy-2-methylpropyl)-5-(trifluoromethyl)picolinamide is 0.5 mM stock in 100% DMSO INH-172 (4-[[4-Oxo-2-thioxo-3-[3-trifluoromethyl)phenyl]-5-thiazolidinylidene]methyl]benzoic acid) stock is 30 mM in 100% DMSO […]

SMILES	Emax (delF508-CFTR-HRP) [%]	EC50 (delF508-CFTR-HRP) [nM]	MTECC24 CFHBEC-Amax % (delF508-CFTR) [%]	EC50 (delF508-CFTR) [nM]
O=C(NS(=O)(=O)c1cccc(N2CC[C@H](O)C2)n1)C1(Oc2cc(Cl)ccc2N2CCC3(CCCC3)CC2)CC1 [Example 9-13, (S)-1-(5-Chloro-2-(8-azaspiro[4.5]decan-8-yl)phenoxy)-N-((6-(3-hydroxypyrrolidin-1-yl)pyridin-2-yl)sulfonyl)cyclopropanecarboxamide]	638	1040	128.4	171
COC1CN(c2cccc(S(=O)(=O)NC(=O)C3(Oc4cc(C)ccc4C4CCCCC4)CC3)n2)C1 [Example 2-18, 1-(2-Cyclohexyl-5-methylphenoxy)-N-((6-(3-methoxyazetidin-1-yl)pyridin-2-yl)sulfonyl)cyclopropanecarboxamide]	597	1580	91	21
CC1(C)CCN(c2ccc(Cl)cc2OC2(C(=O)NS(=O)(=O)c3cccc(N4CCC(C)(O)CC4)n3)CC2)CC1 [Example 9-42, 1-(5-Chloro-2-(4,4-dimethylpiperidin-1-yl)phenoxy)-N-((6-(4-hydroxy-4-methylpiperidin-1-yl)pyridin-2-yl)sulfonyl)cyclopropane-1-carboxamide]	588	1350	93.9	138
C[C@@H]1CN(c2cccc(S(=O)(=O)NC(=O)C3(Oc4cc(Cl)ccc4C4CCC(C)(C)CC4)CC3)n2)CCO1 [Example 4-13, (R)-1-(5-Chloro-2-(4,4-dimethylcyclohexyl)phenoxy)-N-((6-(2-methylmorpholino)pyridin-2-yl)sulfonyl)cyclopropane-1-carboxamide]	591	1410	83	50
Cc1ccc(C2CCCCC2)c(OC2(C(=O)NS(=O)(=O)c3cccc(N4CCN(c5ccccc5)CC4)n3)CC2)c1 [Example 2-54, 1-(2-Cyclohexyl-5-methylphenoxy)-N-((6-(4-phenylpiperazin-1-yl)pyridin-2-yl)sulfonyl)cyclopropane-1-carboxamide]	513	650	70	14
Cc1ccc(C2CCCCC2)c(OC2(C(=O)NS(=O)(=O)c3cccc(N4CCC(C)(N)C4)n3)CC2)c1 (stereo not drawn) [Example 2-27, N-((6-(3-Amino-3-methylpyrrolidin-1-yl)pyridin-2-yl)sulfonyl)-1-(2-cyclohexyl-5-methylphenoxy)cyclopropanecarboxamide]	181	2580	104	70
Cc1ccc(C2CC=CCC2)c(OC2(C(=O)NS(=O)(=O)c3cccc(N4CC(C)(O)C4)n3)CC2)c1 (stereo not drawn) [Example 4-22, N-((6-(3-hydroxy-3-methylazetidin-1-yl)pyridin-2-yl)sulfonyl)-1-((4-methyl-1′,2′,3′,6′-tetrahydro-[1,1′-biphenyl]-2-yl)oxy)cyclopropanecarboxamide]	453	3670	62	12
CC1(O)CCN(c2cccc(S(=O)(=O)NC(=O)C3(Oc4cc(Cl)ccc4C4CC5(CCC5)C4)CC3)n2)CC1 [Example 7-12, 1-(5-Chloro-2-(spiro[3.3]heptan-2-yl)phenoxy)-N-((6-(4-hydroxy-4-methylpiperidin-1-yl)pyridin-2-yl)sulfonyl)cyclopropane-1-carboxamide]	529	1090	152.6	195
Cc1ccc(C2CCCCC2)c(OC2(C(=O)NS(=O)(=O)c3cccc(N4CCC(C)(C(N)=O)CC4)n3)CC2)c1 [Example 2-14, 1-(6-(N-(1-(2-cyclohexyl-5-methylphenoxy)cyclopropanecarbonyl)sulfamoyl)pyridin-2-yl)-4-methylpiperidine-4-carboxamide]	319	2780	75	31

The remaining molecules from weak to strong by EC50 (delF508-CFTR-HRP), led by results:

Emax (delF508-CFTR-HRP) [%]	EC50 (delF508-CFTR-HRP) [nM]	MTECC24 CFHBEC-Amax % (delF508-CFTR) [%]	EC50 (delF508-CFTR) [nM]	SMILES
34	4560	62	131	Cc1ccc(C2CCCCC2)c(OC2(C(=O)NS(=O)(=O)c3cccc(N4CCC(C(=O)O)CC4)n3)CC2)c1 [Example 2-6, 1-(6-(N-(1-(2-cyclohexyl-5-methylphenoxy)cyclopropanecarbonyl)sulfamoyl)pyridin-2-yl)piperidine-4-carboxylic acid]
260	3970	59	437	Cc1ccc(C2CCC(F)(F)CC2)c(OC2(C(=O)NS(=O)(=O)c3cccc(N)n3)CC2)c1 [Example 1-4, N-((6-Aminopyridin-2-yl)sulfonyl)-1-(2-(4,4-difluorocyclohexyl)-5-methylphenoxy)cyclopropane-1-carboxamide]
230	3870	67	153	Cc1ccc(OCc2ccccc2)c(OC2(C(=O)NS(=O)(=O)c3cccc(N4CCO[C@@H](C)C4)n3)CC2)c1 [Example 6-1, (S)-1-(2-(Benzyloxy)-5-methylphenoxy)-N-((6-(2-methylmorpholino)pyridin-2-yl)sulfonyl)cyclopropanecarboxamide]
416	1590	82	2	Cc1ccc(C2CCCCC2)c(OC2(C(=O)NS(=O)(=O)c3cccc(N4CCO[C@H](C)C4)n3)CC2)c1 [Example 2-53, (R)-1-(2-Cyclohexyl-5-methylphenoxy)-N-((6-(2-methylmorpholino)pyridin-2-yl)sulfonyl)cyclopropane-1-carboxamide]
416	1210	114	26	Cc1ccc(-c2ccc(C(F)(F)F)cc2)c(OC2(C(=O)NS(=O)(=O)c3cccc(N4CC[C@H](O)C4)n3)CC2)c1 [Example 5-10, (S)—N-((6-(3-Hydroxypyrrolidin-1-yl)pyridin-2-yl)sulfonyl)-1-((4-methyl-4′-(trifluoromethyl)-[1,1′-biphenyl]-2-yl)oxy)cyclopropane-1-carboxamide]
284	880	90	6	Cc1ccc(C2CCCCC2)c(OC2(C(=O)NS(=O)(=O)c3cccc(N4CCC(CF)(NC(=O)OC(C)(C)C)CC4)n3)CC2)c1 [Example 2-42, Tert-butyl (1-(6-(N-(1-(2-cyclohexyl-5-methylphenoxy)cyclopropanecarbonyl)sulfamoyl)pyridin-2-yl)-4-(fluoromethyl)piperidin-4-yl)carbamate]
